These results are taken from US20240269304A1, “BCL-XL INHIBITOR ANTIBODY-DRUG CONJUGATES AND METHODS OF USE THEREOF” (Novartis AG, priority 2020, published 2024).

The subject of one assay is H1650 cells. Description: CellTiterGlo (CTG) cell viability, 3D, 120 h, H1650 (Example 8). It is filed as cell-based, human. The conditions noted are these: Homo sapiens, NCI-H1650, H1650 3D. A general note: In ATP-based viability assays light output follows the ATP content of the culture.
Another assay deals with ALL-SILL (T-ALL). Description: CellTiter-Glo viability 72 h, single agent or 1/1 combination, ALL-SIL (Example 9). Particulars: single agent or 1/1 combination as labelled. It is filed as cell-based. The method, then:
Cell lines were cultured in the media described above at 37° C. in a humidified atmosphere containing 5% CO2. […] Effects of payloads or ADCs on cell viability were assessed after 3 days of incubation at 37° C./5% CO2 by quantification of cellular ATP levels using CellTiter-Glo reagent (Promega Ref: G7571) at 75 μL reagent/well. All the conditions were tested in triplicates. Luminescence was quantified on a multipurpose plate reader. IC50s were calculated using standard four-parametric curve fitting.

A further assay relates to LOUCY (T-ALL). Description: CellTiter-Glo viability 72 h, single agent or 1/1 combination, LOUCY (Example 9). It counts as cell-based. The conditions noted are these: single agent or 1/1 combination as labelled. How it is done: (§1) Cell lines were cultured in the media described above at 37° C. in a humidified atmosphere containing 5% CO2. Cells were seeded in 96 well clear bottom plates (96 well clear-bottom, white, Corning reference 3903) and exposed to the payloads or ADCs at single agents or in 1/1 combinations with vincristine, ABT-199 or compound A2 for 72 h (serially diluted; 9 concentrations each, triplicates). Effects of payloads or ADCs on cell viability were assessed after 3 days of incubation at 37° C./5% CO2 by quantification of cellular ATP levels using CellTiter-Glo reagent (Promega Ref: G7571) at 75 μL reagent/well. All the conditions were tested in triplicates. Luminescence was quantified on a multipurpose plate reader. IC50s were calculated using standard four-parametric curve fitting. […] Each experiment was performed at least twice, with results being reproducible.

The test system of another assay is SUDHL8 (DLBCL). Description: CellTiter-Glo viability 72 h, single agent or 1/1 combination, SUDHL8 (Example 9). It counts as cell-based. The conditions noted are these: Homo sapiens, SU-DHL-8, single agent or 1/1 combination as labelled. The method, then: as §1
The test system of a further assay is corl279. Description: In vitro ADC activity with combination partners (Venetoclax, Topotecan), CellTiter-Glo 5 days, corl279 (Example 13). The conditions noted are these: single agent. It is filed as cell-based. The method, then:
(§2) Antibody drug conjugates (ADCs) targeting IgG, B7H3, CD56, DLK1, DLL3, EpCAM, and SEZ6 were tested against cancer cell lines obtained from ATCC (American Type Culture Collection) or from other commercial cell line vendors (cor1279, ncih1436, ncih146, ncih211, ncih524). The cells were cultured in media that is optimal for their growth at 5% CO2, 37° C. in a tissue culture incubator. Prior to seeding for the proliferation assay, the cells were split at least 2 days before the assay to ensure optimal growth density. On the day of seeding, cells were lifted off tissue culture flasks using 0.25% trypsin. Cell viability and cell density were determined using a cell counter (Vi-Cell XR Cell Viability Analyzer, Beckman Coulter). Cells with higher than 85% viability were seeded in white clear bottom 384-well plates (Greiner cat #781098) at a density of 1000 cells per well in 50 μL of standard growth media. Plates were incubated at 37° C. overnight in a tissue culture incubator.
(§3) The ADCs were prepared in standard phosphate buffered solution to desired concentrations. A series of 10 dilutions were made for each ADC. The prepared drug treatments were then added to the cells resulting in final concentrations of 300 nM to 0.015 nM. Combination partners (Venetoclax and Topotecan) were added at fixed concentrations. Acoustic transfer devices (Echo525, Echo550, Beckman Coulter) were used to add the ADCs or combination partners to the cells. Each treatment was tested in triplicate assay plates. Plates were incubated at 37° C. overnight or for 5 days in a tissue culture incubator. The ability of the ADCs to inhibit cell proliferation and survival was assessed using the Promega CellTiter-Glo® proliferation assay. Plates were incubated at room temperature for 20 minutes to stabilize luminescent signals prior to reading using a multimode plate reader (Pherastar, BMG). Luminescent counts of untreated cells were taken the day after seeding (Day 0 readings), and after 5 days of treatment (Day 5 readings). The Day 5 readings of the untreated cells were compared to the Day 0 readings. Assays with at least one cell doubling during the incubation period were considered valid. To evaluate the effect of the drug treatments, luminescent counts from wells containing untreated cells (100% viability) were used to normalize treated samples. The concentrations of treatment required to inhibit 50% of cell growth or survival ([…]) were calculated using a four parameter logistic regression equation.

For the next assay, the system named is ncih1436. Description: In vitro ADC activity with combination partners, CellTiter-Glo 5 days, ncih1436 (Example 13). It is filed as cell-based. The conditions noted are these: single agent. How it is done:
as §2, §3

A further assay deals with ncih146. Description: In vitro ADC activity with combination partners, CellTiter-Glo 5 days, ncih146 (Example 13). It is filed as cell-based. Particulars: single agent. How it is done: as §2, §3
The test system of the next assay is ncih211. Description: In vitro ADC activity with combination partners, CellTiter-Glo 5 days, ncih211 (Example 13). Particulars: single agent. It is filed as cell-based. How it is done: as §2, §3
Another assay has as its system ncih524. Description: In vitro ADC activity with combination partners, CellTiter-Glo 5 days, ncih524 (Example 13). It counts as cell-based. The conditions noted are these: single agent. The method, then: as §2, §3

Where two headings read alike, the source gives them in different places.

In general, IC50 refers to the concentration that gives 50% inhibition. A word on the GI50: it is the concentration at which growth is held to half of that of the control. On to `Cc1c(Nc2nc3ccccc3s2)nnc2c1CCCN2c1ccc(-c2cnn(C[C@]34C[C@]5(C)C[C@](C)(C3)C[C@@](OCCN3CCCC3)(C5)C4)c2C)c(C(=O)O)n1` [P21, 6-[3-(1,3-benzothiazol-2-ylamino)-4-methyl-6,7-dihydro-5H-pyrido[2,3-c]pyridazin-8-yl]-3-[1-[[3,5-dimethyl-7-(2-pyrrolidin-1-ylethoxy)-1-adamantyl]methyl]-5-methyl-pyrazol-4-yl]pyridine-2-carboxylic acid], for which the IC50 was 310 pM in the assay on H1650 cells (experiment n1, read-out: H1650 3D CTG IC50 n1); 370 pM in the assay with H1650 cells (experiment n2, read-out: H1650 3D CTG IC50 n2); 340 pM with H1650 cells (mean of n1 and n2, read-out: H1650 3D CTG IC50 Mean of n1 and n2); 630 pM in the assay on ALL-SILL (T-ALL) (mean, read-out: ALL-SILL (T-ALL) IC50 mean); 400 pM in the assay with ALL-SILL (T-ALL) (n1, read-out: ALL-SILL (T-ALL) IC50 n1); 860 pM in the assay with ALL-SILL (T-ALL) (n2, read-out: ALL-SILL (T-ALL) IC50 n2). Besides, the 50% inhibitory concentration (IC50) was determined as 730 pM with LOUCY (T-ALL) (mean, read-out: LOUCY (T-ALL) IC50 mean); 730 pM in the assay on LOUCY (T-ALL) (n1, read-out: LOUCY (T-ALL) IC50 n1); 240 pM in the assay with SUDHL8 (DLBCL) (mean, read-out: SUDHL8 (DLBCL) IC50 mean); 340 pM in the assay with SUDHL8 (DLBCL) (n1, read-out: SUDHL8 (DLBCL) IC50 n1); 140 pM with SUDHL8 (DLBCL) (n2, read-out: SUDHL8 (DLBCL) IC50 n2). In addition, the GI50 with corl279 (Homo sapiens, COR-L279, 120 h) stood at 0.00242 µM; in the assay with ncih1436 (Homo sapiens, NCI-H1436, 120 h), 0.000508 µM; in the assay on ncih146 (Homo sapiens, NCI-H146, 120 h), 0.000508 µM; with ncih211 (Homo sapiens, NCI-H211, 120 h) it was 0.000508 µM; with ncih524 (Homo sapiens, NCI-H524, 120 h), 0.000508 µM. In addition, the “GI Amax corl279” value with corl279 is −88.27. For the same compound, the “GI Amax ncih1436” value in the assay on ncih1436 is recorded as −94.5. Moreover, in the assay on ncih146, the “GI Amax ncih146” value is −98.38. Also, in the assay on ncih211, the “GI Amax ncih211” value was −97.26. In the assay on ncih524, the “GI Amax ncih524” value is listed as −97.52.
